Test results reported in patent US10609945B2, “Compositions comprising 2FL and LNnT to control food intake and growth in infants or young children” (NESTEC S.A., priority 2016, dated 2020).

Test: Relative intake (total food intake/average body weight) of IUGR rats
Assay type: in vivo
Conditions: diet with 4.5 wt % HMO(s), vs IUGR rats control; for relative intake, period day 22-day 29: FIG. 4A/5A; for relative intake, period day 22-day 36: FIG. 4B/5B
Excerpt: A wide group of pregnant female rats were bought from Charles River laboratories. Some of them were submitted to food restriction of 60% during the last 10 days of gestation. Immediately after birth (d=1), the born rat pups—subjects of the experiment—were split intoseveral groups: • Normal rats (reference): no IUGR (Intrauterine growth restriction) during their mothers' pregnancy (n=20). • IUGR rats (control): […] LNnT or 2FL+LNnT (in a weight ratio 2:1), see details below. All rat pups were fed from birth (d=1) up to 57 days (d=57) based on the following protocol: • day 1-day 6: all groups of rats were nursed by dam (mothers' milk only) • day 7-day 21: all rats were nursed by dam (mothers' milk only). […] To assess the efficiency of the feeding of these rats, especially tosee whether the feeding imply a healthy growth or not, several parameters were calculated, including: • the lean mass: it corresponds to the amount of weight in the body composition that is not fat. It was measured by magnetic resonance imaging. • the relative intake: it corresponds to the total food intake divided by the average body weight of a specified period. It was assessed for several periods during the entire experiment (so the total of food ingested was measured in continuous during several days to make the calculation). Significance was assessed using the […].

Molecule	relative intake, period day 22-day 29	relative intake, period day 22-day 36
CC(=O)N[C@H]1[C@H](O[C@H]2[C@@H](O)[C@@H](CO)O[C@@H](O[C@H]3[C@H](O)[C@@H](O)C(O)O[C@@H]3CO)[C@@H]2O)O[C@H](CO)[C@@H](O[C@@H]2O[C@H](CO)[C@H](O)[C@H](O)[C@H]2O)[C@@H]1O (mixture of isomers) [LNnT, lacto-N-neotetraose]	significantly increased	significantly increased
2′-fucosyllactose [2FL]	significantly increased	significantly increased
